Results taken from patent publication US20240075046A1 (priority 2020, published 2024).
Entries after “also recorded” stand apart in the source; their conditions may differ.

Tests used:
[1] = tested on: AR, CDC25, GREB1, PGR and TFF1; assay: Expression of genes upregulated by estradiol binding to ERα, real-time PCR in MCF7 cells; assay type: cell-based; conditions: 18 hours, FIGS. 10D-10H
ERα [2] = target: T1, ERα (Homo sapiens, UniProt P03372); assay: Endometriosis model, estrogen receptor western blot in 12Z cell line; assay type: cell-based; design: endogenous in cells; host or cells: 12Z; conditions: 5 h, CF2 0.125 to 0.75 μg/mL
ERα [3] = target: T1, ERα; assay: ERα protein level, western blot in MCF7 cells; assay type: cell-based; design: The intensity of ERα in the nucleus of MCF7 cells was reduced with time; endogenous in cells; host or cells: MCF7; conditions: 18 hours, single cannabinoids vs 1:25:1,000 combination, FIGS. 10A-10B
[4] = tested on: Immortalized Human Endometriotic Cell Line (12Z); assay: Endometriosis model, Annexin V assay, cell viability; assay type: cell-based; conditions: 12Z cells; 24 hours; CF2 concentration of 1 μg/mL
Experimental: To determine the therapeutic effects of CF2 on endometriosis, an Immortalized Human Endometriotic Cell Line (12Z) was used. Cells were incubated in a 12 well plate, each containing 1×10^6 cells. The cells were treated with either vehicle, or CF2 (0.125 to 1 μg/mL each) for 24 hours. Apoptosis was assessed using the Annexin V assay as detailed above. Data are presented as mean±S.E.M (n=3) and statistically analyzed by two-way ANOVA (*p<0.05, ****p<0.0001).

MCF7 cells [5] = assay type: cell-based
ESR1 = ESR1 expression level, real-time PCR in MCF7 cells; assay type: cell-based; conditions: 18 hours, FIG. 10C
Experimental: The expression level of ESR1, the gene encoding for ERα, using real-time PCR following 18 hours of CANN14 treatment was examined. RNA was extracted from 5×10^5 cells and isolated using TRI reagents (Sigma, UK) according to the manufacturer's protocol. The RNA was reverse transcribed with Maxima First Strand cDNA synthesis kit (Life Technologies, Burlington, Canada) and RT-qPCR was preformed using Taq-Man (Life Technologies Ltd, UK). The fold change of calculated compared to the housekeeping gene 18S, using the formula 2^(−ΔΔCT). DMSO was used as a control. […] The activity of ERα as a transcriptional regulator by assessing its binding to Estrogen Response Elements (ERE) following CANN14 treatment was then examined. MCF7 cells were transfected with ERE-luciferase plasmid and luciferase activity was measured.
Next, the effect of the three identified cannabinoids on ERα expression and activity was examined. ERα protein level in MCF7, T47D, and ZR-75-1 cells was measured following 18 hours treatment with either THC, CBN or CF2, separately or in combinations (FIGS. 7A-7B, 8A-8B, and 9A-9B, respectively). […] ESR1 expression level was lowest following treatment with CF2 alone (FIG. 10C).

ZR-75-1 cells = assay: Apoptosis by Annexin V/PI staining, flow cytometry; assay type: cell-based; conditions: CANN14 4 μg/ml, tamoxifen 5 μM or combination
MCF7 cells [6] = conditions: extracts 4 μg/ml, 24 hours, tamoxifen 5 μM, alone or combined
[7] = tested on: cleaved caspase-3 in ZR-75-1 cells; assay: Cleaved caspase-3 western blot; assay type: cell-based; conditions: 8 hours, CANN14 4 μg/ml, tamoxifen 5 μM, relative to DMSO control
T47D cells = assay: Apoptosis by Annexin V/PI staining, flow cytometry; assay type: cell-based; conditions: CANN14 4 μg/ml, tamoxifen 5 μM or combination
[8] = tested on: cleaved caspase-3 in T47D cells; assay: Cleaved caspase-3 western blot; assay type: cell-based; conditions: 8 hours, CANN14 4 μg/ml, tamoxifen 5 μM, relative to DMSO control
[9] = tested on: cleaved caspase-3 in MCF7 cells; assay: Cleaved caspase-3 western blot; assay type: cell-based; conditions: 8 hours, CANN14 4 μg/ml, tamoxifen 5 μM, relative to DMSO control
MCF7 cells [10] = assay: In-vivo mouse model, subcutaneous MCF7 ectopic tumor; conditions: nude mice, MCF7 tumors; IP three times weekly; CANN14 25 mg/kg, tamoxifen 2 mg/kg

T1 sequence (P03372 whole entry): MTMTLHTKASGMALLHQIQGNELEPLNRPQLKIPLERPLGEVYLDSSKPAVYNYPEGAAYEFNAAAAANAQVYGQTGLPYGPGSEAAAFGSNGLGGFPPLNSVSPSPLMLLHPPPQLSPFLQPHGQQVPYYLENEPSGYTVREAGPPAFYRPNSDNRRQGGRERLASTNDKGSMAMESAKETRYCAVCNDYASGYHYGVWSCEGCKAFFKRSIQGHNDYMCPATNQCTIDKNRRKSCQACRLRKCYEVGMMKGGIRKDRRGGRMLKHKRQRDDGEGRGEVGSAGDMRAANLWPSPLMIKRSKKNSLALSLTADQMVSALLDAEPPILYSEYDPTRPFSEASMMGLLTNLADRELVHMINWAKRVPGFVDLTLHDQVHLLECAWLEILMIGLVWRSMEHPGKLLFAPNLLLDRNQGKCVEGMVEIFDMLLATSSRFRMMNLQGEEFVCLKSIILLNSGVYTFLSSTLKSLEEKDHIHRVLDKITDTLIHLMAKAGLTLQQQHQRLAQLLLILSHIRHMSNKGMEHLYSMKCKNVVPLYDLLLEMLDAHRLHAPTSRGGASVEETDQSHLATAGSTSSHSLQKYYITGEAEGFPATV

Compound | expression levels of ERα target genes [1] | ERα protein level (ERα [2]) | ERα protein level (ERα [3]) | cell viability (% Live cells) [4] | apoptotic effect compared with the original 1:25:1,000 combination of CF2, CBN, and THC (MCF7 cells [5]) | apoptotic effect compared with the CANN14 whole extract (MCF7 cells [5]; MCF7 cells, higher concentrations of CF2, in combination with tamoxifen, FIG. 4G) | ESR1 expression level (ESR1) | % Apoptosis (ZR-75-1 cells) | % Cell death (MCF7 cells [6]) | cleaved caspase-3, normalized intensity (treatment/control) [7] | % Apoptosis (T47D cells) | cleaved caspase-3, normalized intensity (treatment/control) [8] | cleaved caspase-3, normalized intensity (treatment/control) [9] | % Apoptosis (MCF7 cells [5]; MCF7 cells, CANN14 4 μg/ml, tamoxifen 5 μM or combination) | ectopic tumor volume / tumor size (MCF7 cells [10])
CCCCCc1cc(O)c2c(c1)OC(C)(C)c1ccc(C)cc1-2 [CBN, cannabinol, reference compound] | reduced to the lowest level compared to the control |  |  |  |  |  |  |  |  |  |  |  |  |  | 
CCCCCc1cc(O)c(C/C=C(/C)CCC=C(C)C)c(O)c1OC(C)=O [CF2] | reduced to the lowest level compared to the control | significantly reduced; also recorded: reduces | significantly reduced the most; also recorded: reduces ERα protein level | statistically significant reduction in cell viability; also recorded: reduces cell viability | same apoptotic effect as the original combination of the three phytocannabinoids | significantly superior to the CANN14 whole extract | lowest |  |  |  |  |  |  |  | 
CC/C(=C(\c1ccccc1)c1ccc(OCCN(C)C)cc1)c1ccccc1 [tamoxifen] |  |  |  |  |  |  |  | not affected | did not affect the viability of the cells | increased induction of cleaved caspase-3 | not affected | increased induction of cleaved caspase-3 | increased induction of cleaved caspase-3 | not affected | trend of smaller tumor sizes
